Results from BindingDB's records for doi:10.1016/s0960-894x(03)00205-1 (Abbott Laboratories, 2003).

Test: Potassium channel opening activity in vitro using LtK cells transfected with Kir6.2/SUR2B exon 17

| SMILES | EC50 [nM] |
| --- | --- |
| O=C(Nc1ccc(Cl)cc1)Nc1c(C(O)(C(F)(F)F)C(F)(F)F)ccc2ccccc12 [1-(4-Chloro-phenyl)-3-[2-(2,2,2-trifluoro-1-hydroxy-1-trifluoromethyl-ethyl)-naphthalen-1-yl]-urea] | 276 |
| O=C(NCCCCCCCl)Nc1c(C(O)(C(F)(F)F)C(F)(F)F)ccc2ccccc12 [1-(6-Chloro-hexyl)-3-[2-(2,2,2-trifluoro-1-hydroxy-1-trifluoromethyl-ethyl)-naphthalen-1-yl]-urea] | 4840 |
| O=C(Nc1c(C(O)(C(F)(F)F)C(F)(F)F)ccc2ccccc12)c1cccc(Cl)c1Cl [2,3-Dichloro-N-[2-(2,2,2-trifluoro-1-hydroxy-1-trifluoromethyl-ethyl)-naphthalen-1-yl]-benzamide] | > 10000 |
| O=C(Nc1c(C(O)(C(F)(F)F)C(F)(F)F)ccc2ccccc12)c1ccccc1Cl [2-Chloro-N-[2-(2,2,2-trifluoro-1-hydroxy-1-trifluoromethyl-ethyl)-naphthalen-1-yl]-benzamide] | 2040 |
| O=C(CC1CCCC1)Nc1c(C(O)(C(F)(F)F)C(F)(F)F)ccc2ccccc12 [2-Cyclopentyl-N-[2-(2,2,2-trifluoro-1-hydroxy-1-trifluoromethyl-ethyl)-naphthalen-1-yl]-acetamide] | 81 |
| CCC(CC)C(=O)Nc1c(C(O)(C(F)(F)F)C(F)(F)F)ccc2ccccc12 [2-Ethyl-N-[2-(2,2,2-trifluoro-1-hydroxy-1-trifluoromethyl-ethyl)-naphthalen-1-yl]-butyramide] | 4340 |
| Cc1ccccc1C(=O)Nc1c(C(O)(C(F)(F)F)C(F)(F)F)ccc2ccccc12 [2-Methyl-N-[2-(2,2,2-trifluoro-1-hydroxy-1-trifluoromethyl-ethyl)-naphthalen-1-yl]-benzamide] | 5550 |
| CCC(C)C(=O)Nc1c(C(O)(C(F)(F)F)C(F)(F)F)ccc2ccccc12 (stereo not given) [2-Methyl-N-[2-(2,2,2-trifluoro-1-hydroxy-1-trifluoromethyl-ethyl)-naphthalen-1-yl]-butyramide] | 177000 |
| CCCC(C)C(=O)Nc1c(C(O)(C(F)(F)F)C(F)(F)F)ccc2ccccc12 (stereo not given) [2-Methyl-pentanoic acid [2-(2,2,2-trifluoro-1-hydroxy-1-trifluoromethyl-ethyl)-naphthalen-1-yl]-amide] | > 10000 |
| O=C(Nc1c(C(O)(C(F)(F)F)C(F)(F)F)ccc2ccccc12)c1ccc(Cl)c(Cl)c1 [3,4-Dichloro-N-[2-(2,2,2-trifluoro-1-hydroxy-1-trifluoromethyl-ethyl)-naphthalen-1-yl]-benzamide] | 194 |
| O=C(Nc1c(C(O)(C(F)(F)F)C(F)(F)F)ccc2ccccc12)c1cc(Cl)cc(Cl)c1 [3,5-Dichloro-N-[2-(2,2,2-trifluoro-1-hydroxy-1-trifluoromethyl-ethyl)-naphthalen-1-yl]-benzamide] | 306 |
| O=C(Nc1c(C(O)(C(F)(F)F)C(F)(F)F)ccc2ccccc12)c1cccc(Br)c1 [3-Bromo-N-[2-(2,2,2-trifluoro-1-hydroxy-1-trifluoromethyl-ethyl)-naphthalen-1-yl]-benzamide] | 80 |
| O=C(Nc1c(C(O)(C(F)(F)F)C(F)(F)F)ccc2ccccc12)c1cccc(Cl)c1 [3-Chloro-N-[2-(2,2,2-trifluoro-1-hydroxy-1-trifluoromethyl-ethyl)-naphthalen-1-yl]-benzamide] | 98 |
| N#Cc1cccc(C(=O)Nc2c(C(O)(C(F)(F)F)C(F)(F)F)ccc3ccccc23)c1 [3-Cyano-N-[2-(2,2,2-trifluoro-1-hydroxy-1-trifluoromethyl-ethyl)-naphthalen-1-yl]-benzamide] | 12 |
| O=C(Nc1c(C(O)(C(F)(F)F)C(F)(F)F)ccc2ccccc12)c1cccc(F)c1 [3-Fluoro-N-[2-(2,2,2-trifluoro-1-hydroxy-1-trifluoromethyl-ethyl)-naphthalen-1-yl]-benzamide] | 44 |
| COc1cccc(C(=O)Nc2c(C(O)(C(F)(F)F)C(F)(F)F)ccc3ccccc23)c1 [3-Methoxy-N-[2-(2,2,2-trifluoro-1-hydroxy-1-trifluoromethyl-ethyl)-naphthalen-1-yl]-benzamide] | 185 |
| Cc1cccc(C(=O)Nc2c(C(O)(C(F)(F)F)C(F)(F)F)ccc3ccccc23)c1 [3-Methyl-N-[2-(2,2,2-trifluoro-1-hydroxy-1-trifluoromethyl-ethyl)-naphthalen-1-yl]-benzamide] | 23 |
| CC(C)=CC(=O)Nc1c(C(O)(C(F)(F)F)C(F)(F)F)ccc2ccccc12 [3-Methyl-but-2-enoic acid [2-(2,2,2-trifluoro-1-hydroxy-1-trifluoromethyl-ethyl)-naphthalen-1-yl]-amide] | 46 |
| O=C(Nc1c(C(O)(C(F)(F)F)C(F)(F)F)ccc2ccccc12)c1cccc([N+](=O)[O-])c1 [3-Nitro-N-[2-(2,2,2-trifluoro-1-hydroxy-1-trifluoromethyl-ethyl)-naphthalen-1-yl]-benzamide] | 117 |
| O=C(CCc1ccccc1)Nc1c(C(O)(C(F)(F)F)C(F)(F)F)ccc2ccccc12 [3-Phenyl-N-[2-(2,2,2-trifluoro-1-hydroxy-1-trifluoromethyl-ethyl)-naphthalen-1-yl]-propionamide] | 1750 |

| SMILES | EC50 [nM] |
| --- | --- |
| O=C(Nc1c(C(O)(C(F)(F)F)C(F)(F)F)ccc2ccccc12)c1ccc(Br)cc1 [4-Bromo-N-[2-(2,2,2-trifluoro-1-hydroxy-1-trifluoromethyl-ethyl)-naphthalen-1-yl]-benzamide] | 47 |
| O=C(Nc1c(C(O)(C(F)(F)F)C(F)(F)F)ccc2ccccc12)c1ccc(Cl)cc1 [4-Chloro-N-[2-(2,2,2-trifluoro-1-hydroxy-1-trifluoromethyl-ethyl)-naphthalen-1-yl]-benzamide] | 570 |
| O=C(Nc1c(C(O)(C(F)(F)F)C(F)(F)F)ccc2ccccc12)c1ccc(F)cc1 [4-Fluoro-N-[2-(2,2,2-trifluoro-1-hydroxy-1-trifluoromethyl-ethyl)-naphthalen-1-yl]-benzamide] | 70 |
| O=C(Nc1c(C(O)(C(F)(F)F)C(F)(F)F)ccc2ccccc12)c1ccc(I)cc1 [4-Iodo-N-[2-(2,2,2-trifluoro-1-hydroxy-1-trifluoromethyl-ethyl)-naphthalen-1-yl]-benzamide] | 154 |
| COc1ccc(C(=O)Nc2c(C(O)(C(F)(F)F)C(F)(F)F)ccc3ccccc23)cc1 [4-Methoxy-N-[2-(2,2,2-trifluoro-1-hydroxy-1-trifluoromethyl-ethyl)-naphthalen-1-yl]-benzamide] | 417 |
| Cc1ccc(C(=O)Nc2c(C(O)(C(F)(F)F)C(F)(F)F)ccc3ccccc23)cc1 [4-Methyl-N-[2-(2,2,2-trifluoro-1-hydroxy-1-trifluoromethyl-ethyl)-naphthalen-1-yl]-benzamide] | 76 |
| CC(C)CCC(=O)Nc1c(C(O)(C(F)(F)F)C(F)(F)F)ccc2ccccc12 [4-Methyl-pentanoic acid [2-(2,2,2-trifluoro-1-hydroxy-1-trifluoromethyl-ethyl)-naphthalen-1-yl]-amide] | 49 |
| O=C(Nc1c(C(O)(C(F)(F)F)C(F)(F)F)ccc2ccccc12)c1cc2ccccc2s1 [Benzo[b]thiophene-2-carboxylic acid [2-(2,2,2-trifluoro-1-hydroxy-1-trifluoromethyl-ethyl)-naphthalen-1-yl]-amide] | > 10000 |
| O=C(Nc1c(C(O)(C(F)(F)F)C(F)(F)F)ccc2ccccc12)c1ccc(-c2ccccc2)cc1 [Biphenyl-4-carboxylic acid [2-(2,2,2-trifluoro-1-hydroxy-1-trifluoromethyl-ethyl)-naphthalen-1-yl]-amide] | > 10000 |
| C/C=C/C(=O)Nc1c(C(O)(C(F)(F)F)C(F)(F)F)ccc2ccccc12 [But-2-enoic acid [2-(2,2,2-trifluoro-1-hydroxy-1-trifluoromethyl-ethyl)-naphthalen-1-yl]-amide] | 72 |
| O=C(Nc1c(C(O)(C(F)(F)F)C(F)(F)F)ccc2ccccc12)C1CCC1 [Cyclobutanecarboxylic acid [2-(2,2,2-trifluoro-1-hydroxy-1-trifluoromethyl-ethyl)-naphthalen-1-yl]-amide] | 45 |
| O=C(Nc1c(C(O)(C(F)(F)F)C(F)(F)F)ccc2ccccc12)C1CCCC1 [Cyclopentanecarboxylic acid [2-(2,2,2-trifluoro-1-hydroxy-1-trifluoromethyl-ethyl)-naphthalen-1-yl]-amide] | 495 |
| O=C(Nc1c(C(O)(C(F)(F)F)C(F)(F)F)ccc2ccccc12)C1CC1 [Cyclopropanecarboxylic acid [2-(2,2,2-trifluoro-1-hydroxy-1-trifluoromethyl-ethyl)-naphthalen-1-yl]-amide] | 751 |
| O=C(Nc1c(C(O)(C(F)(F)F)C(F)(F)F)ccc2ccccc12)c1ccco1 [Furan-2-carboxylic acid [2-(2,2,2-trifluoro-1-hydroxy-1-trifluoromethyl-ethyl)-naphthalen-1-yl]-amide] | 9 |
| O=C(Nc1c(C(O)(C(F)(F)F)C(F)(F)F)ccc2ccccc12)c1cccc(C(F)(F)F)c1 [N-[2-(2,2,2-Trifluoro-1-hydroxy-1-trifluoromethyl-ethyl)-naphthalen-1-yl]-3-trifluoromethyl-benzamide] | 84 |
| O=C(Nc1c(C(O)(C(F)(F)F)C(F)(F)F)ccc2ccccc12)c1ccc(OC(F)(F)F)cc1 [N-[2-(2,2,2-Trifluoro-1-hydroxy-1-trifluoromethyl-ethyl)-naphthalen-1-yl]-4-trifluoromethoxy-benzamide] | > 10000 |
| O=C(Nc1c(C(O)(C(F)(F)F)C(F)(F)F)ccc2ccccc12)c1ccc(C(F)(F)F)cc1 [N-[2-(2,2,2-Trifluoro-1-hydroxy-1-trifluoromethyl-ethyl)-naphthalen-1-yl]-4-trifluoromethyl-benzamide] | 160 |
| CC(=O)Nc1c(C(O)(C(F)(F)F)C(F)(F)F)ccc2ccccc12 [N-[2-(2,2,2-Trifluoro-1-hydroxy-1-trifluoromethyl-ethyl)-naphthalen-1-yl]-acetamide] | 18 |
| O=C(Nc1c(C(O)(C(F)(F)F)C(F)(F)F)ccc2ccccc12)c1ccccc1 [N-[2-(2,2,2-Trifluoro-1-hydroxy-1-trifluoromethyl-ethyl)-naphthalen-1-yl]-benzamide] | 44 |
| CCCC(=O)Nc1c(C(O)(C(F)(F)F)C(F)(F)F)ccc2ccccc12 [N-[2-(2,2,2-Trifluoro-1-hydroxy-1-trifluoromethyl-ethyl)-naphthalen-1-yl]-butyramide] | 131 |
